Literature values as cited in patent US20250375395A1 (priority 2016, published 2025).

Conditions: carbonic acid/sodium bicarbonate

O=C([O-])O.[Na+] [sodium bicarbonate]
pKa: 6.4
